Measured values published in patent US7998988B2, “Biphenyl compounds useful in the treatment or prevention of cardiovascular disorders” (Bayer Schering Pharma Aktiengellschaft, priority 2005, dated 2011).

Tested on: saphenous artery rings
Assay: Vasorelaxant effect in vitro (phenylephrine-contracted artery rings)
Format: cell-based
Conditions: Oryctolagus cuniculus, rabbit saphenous artery rings, contraction induced by phenylephrine
Experimental: Rabbits are anesthetized and sacrificed by intravenous injection of thiopental sodium (about 50 mg/kg) and exsanguinated. The saphenous artery is removed and divided into rings 3 mm wide. The rings are mounted singly on in each case a pair of triangular hooks open at the end and made of 0.3 mm-thick special wire (Remanium®). Each ring is placed under an initial tension in 5 ml organ baths with Krebs-Henseleit solution which is at 37° C., is gassed with 95% 02/5% CO2 and has the following composition: NaCl 119 mM; KCl 4.8 mM; CaCl2×2H2O 1 mM; MgSO4×7 H2O 1.4 mM; KH2PO4 1.2 mM; NaHCO3 25 mM; glucose 10 mM; bovine serum albumin 0.001%. The force of contraction is detected with Statham UC2 cells, amplified and digitized via A/D converters (DAS-1802 HC, Keithley Instruments, Munich) and recorded in parallel on chart recorders. Contractions are induced by addition of phenylephrine.
After several (generally 4) control cycles, the substance to be investigated is added in each further run in increasing dosage, and the height of the contraction achieved under the influence of the test substance is compared with the height of the contraction reached in the last preceding run. The concentration necessary to reduce the contraction reached in the preceding control by 50% is calculated from this (IC50). The standard application volume is 5 μl. The proportion of DMSO in the bath solution corresponds to 0.1%.

Row | IC50 [nM] | SMILES
1 | 724 | COc1ccc(CCc2ccc(F)cc2/C=C/C(CCc2ccc(-c3noc(=O)[nH]3)cc2)Cc2ccc(C(=O)O)cc2)cc1 (single isomer, unassigned) [Example 11, E-4-(4-{5-Fluoro-2-[2-(4-methoxyphenyl)ethyl]phenyl}-2-{2-[4-(5-oxo-4,5-dihydro-[1,2,4]oxadiazol-3-yl)phenyl]ethyl}but-3-enyl)benzoic acid]
2 | 505 | CC(C)(C)c1ccc(COc2ccc(F)cc2/C=C/C(CCc2ccc(-c3noc(=O)[nH]3)cc2)Cc2ccc(C(=O)O)cc2)cc1 (single isomer, unassigned) [Example 51]
3 | 263 | CC(C)(C)c1ccc(COc2ccccc2/C=C/C(CCc2ccc(C(=O)O)cc2)Cc2ccc(-c3noc(=O)[nH]3)cc2)cc1 (single isomer, unassigned) [Example 66]
4 | 390 | CCCCCOc1ccccc1/C=C/C(CCc1ccc(C(=O)O)cc1)Cc1ccc(-c2noc(=O)[nH]2)cc1 (single isomer, unassigned) [Example 92]
5 | 410 | CCCCCCOc1ccccc1/C=C/C(CCc1ccc(C(=O)O)cc1)Cc1ccc(-c2noc(=O)[nH]2)cc1 (single isomer, unassigned) [Example 95]
6 | 1330 | O=C(O)c1ccc(CCC(/C=C\c2ccccc2OC(F)(F)F)Cc2ccc(-c3noc(=O)[nH]3)cc2)cc1 (single isomer, unassigned) [Example 96]

Further lines, the compound ahead of its results:

Row | SMILES | IC50 [nM]
7 | O=C(O)c1ccc(CC(/C=C/c2ccccc2OCc2ccc(-c3ccc(C(F)(F)F)cc3)cc2)CCc2ccc(-c3noc(=O)[nH]3)cc2)cc1 (single isomer, unassigned) [Example 18] | 490
8 | O=C(O)c1ccc(CCC(/C=C\c2ccccc2OCc2ccc(-c3ccc(C(F)(F)F)cc3)cc2)Cc2ccc(-c3noc(=O)[nH]3)cc2)cc1 (single isomer, unassigned) [Example 57] | 714
9 | CC(C)(C)c1ccc(COc2ccccc2/C=C/C(CCCCC(=O)O)CCc2ccc(-c3noc(=O)[nH]3)cc2)cc1 (single isomer, unassigned) [Example 71, E-8-[2-(4-tert-Butylbenzyloxy)phenyl]-6-{2-[4-(5-oxo-4,5-dihydro-[1,2,4]oxadiazol-3-yl)phenyl]-ethyl}oct-7-enoic acid] | 898
10 | CC(C)(C)c1ccc(COc2ccccc2/C=C/C(CCc2ccc(C(=O)O)cc2)Cc2ccc(-c3n[nH]c(=O)o3)cc2)cc1 (single isomer, unassigned) [Example 78, 4-{(4E)-5-{2-[(4-tert-Butylbenzyl)oxy]phenyl}-3-[4-(5-oxo-4,5-dihydro-1,3,4-oxadiazol-2-yl)benzyl]pent-4-en-1-yl}benzoic acid] | 13
11 | O=C(O)c1ccc(CN(CCc2ccc(-c3noc(=O)[nH]3)cc2)CCc2ccccc2OCc2ccc(-c3ccc(C(F)(F)F)cc3)cc2)cc1 [Example 1, 4-[({2-[4-(5-Oxo-4,5-dihydro-[1,2,4]oxadiazol-3-yl)phenyl]ethyl}-{2-[2-(4′-trifluoromethylbiphenyl-4-ylmethoxy)phenyl]ethyl}amino)methyl]benzoic acid] | 26
12 | CC(C)(C)c1ccc(COc2ccccc2/C=C/C(CCCCC(=O)O)CCc2ccc(-c3n[nH]c(=O)o3)cc2)cc1 (stereo not shown) [Example 74] | 290
13 | CC(C)(C)c1ccc(COc2ccccc2/C=C/C(CCc2ccc(-c3n[nH]c(=S)[nH]3)cc2)Cc2ccc(C(=O)O)cc2)cc1 (stereo not shown) [Example 76, 4-((3E)-4-{2-[(4-tert-Butylbenzyl)oxy]phenyl}-2-{2-[4-(5-thioxo-4,5-dihydro-1H-1,2,4-triazol-3-yl)phenyl]ethyl}but-3-en-1-yl)benzoic acid] | 851
14 | CC(C)(C)c1ccc(COc2ccccc2/C=C/C(CCc2ccc(C(=O)O)cc2)Cc2ccc(-c3n[nH]c(=O)[nH]3)cc2)cc1 (stereo not shown) [Example 80, 4-{(4E)-5-{2-[(4-tert-Butylbenzyl)oxy]phenyl}-3-[4-(5-oxo-4,5-dihydro-1H-1,2,4-triazol-3-yl)benzyl]pent-4-en-1-yl}benzoic acid] | 74
15 | CC(C)(C)c1ccc(COc2ccccc2/C=C/C(CCc2ccc(C(=O)O)cc2)Cc2ccc(-c3n[nH]c(N)n3)cc2)cc1 (stereo not shown) [Example 81, 4-((4E)-3-[4-(5-Amino-1H-1,2,4-triazol-3-yl)benzyl]-5-{2-[(4-tert.-butylbenzyl)oxy]phenyl}pent-4-en-1-yl)benzoic acid] | 422
16 | CC(C)(C)c1ccc(COc2ccccc2/C=C/C(CCCCC(=O)O)Cc2ccc(-c3n[nH]c(=O)o3)cc2)cc1 (stereo not shown) [Example 85, E-8-[2-(4-tert-Butylbenzyloxy)phenyl]-6-[4-(5-oxo-4,5-dihydro-[1,3,4]oxadiazol-2-yl)benzyl]oct-7-enoic acid] | 58

Same assay, conditions: rabbit saphenous artery rings, contraction induced by phenylephrine

Row | IC50 [nM] | SMILES
17 | 850 | O=C(O)c1ccc(CC(/C=C/c2ccccc2OCc2ccc(-c3ccc(C(F)(F)F)cc3)cc2)CCc2ccc(-c3noc(=O)[nH]3)cc2)cc1 (single isomer, unassigned) [Example 19]
18 | 635 | O=C(O)c1ccc(CCC(/C=C/c2ccccc2OCc2ccc(-c3ccc(C(F)(F)F)cc3)cc2)Cc2ccc(-c3noc(=O)[nH]3)cc2)cc1 (single isomer, unassigned) [Example 56, E-4-{3-[4-(5-Oxo-4,5-dihydro-[1,2,4]oxadiazol-3-yl)benzyl]-5-[2-(4′-trifluoromethylbiphenyl-4-ylmethoxy)phenyl]pent-4-enyl}benzoic acid]
19 | 153 | CC(C)(C)c1ccc(COc2ccccc2/C=C/C(CCc2ccc(C(=O)O)cc2)Cc2ccc(-c3noc(=O)[nH]3)cc2)cc1 (single isomer, unassigned) [Example 67]
